The results in this text go back to ChEMBL document CHEMBL1275588, “Role of pfmdr1 amplification and expression in induction of resistance to artemisinin derivatives in Plasmodium falciparum” (Antimicrob Agents Chemother, 2010).

For experiment [1], the system named is Plasmodium falciparum. As to the kind of experiment: Antimalarial activity against Plasmodium falciparum W2 assessed as level of pfmdr1 mRNA expression organism selected on 40 ng/ml of compound by quantitative real-time RT-PCR with respect to wild type. Type of experiment: functional.
Experiment [2] concerns Plasmodium falciparum. Briefly: Antimalarial activity against Plasmodium falciparum W2 harboring 2 copy number of pfmdr1 gene organism selected at 200 ng/ml compound concentration. Format: functional, organism-based.
Experiment [3] has as its system Plasmodium falciparum. As to the kind of experiment: Antimalarial activity against Plasmodium falciparum W2 harboring 2 copy number of pfmdr1 gene organism selected at 40 ng/ml compound concentration. Type of experiment: functional, organism-based.
Experiment [4] relates to Plasmodium falciparum. As to the kind of experiment: Antimalarial activity against Plasmodium falciparum W2 harboring 3 copy number of pfmdr1 gene organism selected at 120 ng/ml compound concentration. Type of experiment: functional, organism-based.
Experiment [5] relates to Plasmodium falciparum. Briefly: Antimalarial activity against Plasmodium falciparum W2 assessed as inhibition of [3H]hypoxanthine uptake organism selected on 50 ng/mL compound concentration. Format: functional, organism-based.
Experiment [6] deals with Plasmodium falciparum. Briefly: Antimalarial activity against Plasmodium falciparum W2 organism selected on up to 80 ng/ml compound concentration. Format: functional, organism-based.
Experiment [7] has as its system Plasmodium falciparum. Briefly: Antimalarial activity against Plasmodium falciparum W2 organism selected on 40 ng/ml compound concentration. Format: functional, organism-based.
Experiment [8] concerns Plasmodium falciparum. As to the kind of experiment: Antimalarial activity against Plasmodium falciparum W2 harboring 1 copy number of pfmdr1 gene organism selected at 10 to 30 ng/ml compound concentration. Format: functional, organism-based.
Experiment [9] deals with Plasmodium falciparum. Briefly: Antimalarial activity against Plasmodium falciparum D6 assessed as level of pfmdr1 mRNA expression organism selected on 80 ng/ml of compound by quantitative real-time RT-PCR with respect to wild type. Format: functional, organism-based. (In general: In qPCR the cycle at which signal appears reflects the starting amount.)
Experiment [10] deals with Plasmodium falciparum. As to the kind of experiment: Antimalarial activity against Plasmodium falciparum W2 assessed as level of pfmdr1 mRNA expression organism selected on 80 ng/ml of compound by quantitative real-time RT-PCR with respect to wild type. Type of experiment: functional.
Experiment [11] relates to Plasmodium falciparum. Briefly: Antimalarial activity against Plasmodium falciparum D6 assessed as inhibition of [3H]hypoxanthine uptake organism selected on 80 ng/ml compound concentration. Format: functional, organism-based.
In experiment [12] the test system is Plasmodium falciparum. As to the kind of experiment: Antimalarial activity against Plasmodium falciparum TM91C235 assessed as inhibition of [3H]hypoxanthine uptake organism selected on 50 ng/mL compound concentration. Type of experiment: functional, organism-based.
Experiment [13] deals with Plasmodium falciparum. As to the kind of experiment: Antimalarial activity against Plasmodium falciparum TM91C235 assessed as inhibition of [3H]hypoxanthine uptake organism selected on 80 ng/mL compound concentration. Format: functional, organism-based.
The test system of experiment [14] is Plasmodium falciparum. As to the kind of experiment: Antimalarial activity against Plasmodium falciparum TM91C235 assessed as level of pfmdr1 mRNA expression organism selected on 80 ng/ml of compound by quantitative real-time RT-PCR with respect to wild type. Type of experiment: functional.
The subject of experiment [15] is Plasmodium falciparum. As to the kind of experiment: Antimalarial activity against Plasmodium falciparum W2 assessed as inhibition of [3H]hypoxanthine uptake. Type of experiment: functional, organism-based.
In experiment [16] the test system is Plasmodium falciparum. As to the kind of experiment: Antimalarial activity against Plasmodium falciparum W2 harboring 3 copy number of pfmdr1 gene organism selected at 80 ng/ml compound concentration. Type of experiment: functional, organism-based.
Experiment [17] relates to Plasmodium falciparum. As to the kind of experiment: Antimalarial activity against Plasmodium falciparum W2 assessed as inhibition of [3H]hypoxanthine uptake organism selected on 80 ng/mL compound concentration. Format: functional, organism-based.
Experiment [18] has as its system Plasmodium falciparum. Briefly: Antimalarial activity against Plasmodium falciparum TM91C235 selected on 30 ng/ml compound concentration. Type of experiment: functional, organism-based.
The subject of experiment [19] is Plasmodium falciparum. Briefly: Antimalarial activity against Plasmodium falciparum D6 harboring 1 copy number of pfmdr1 gene organism selected at up to 80 ng/ml compound concentration. Type of experiment: functional, organism-based.
In experiment [20] the test system is Plasmodium falciparum. As to the kind of experiment: Antimalarial activity against Plasmodium falciparum TM91C235 harboring 2 copy number of pfmdr1 gene organism selected at 10 to 50 ng/ml compound concentration. Type of experiment: functional, organism-based.
Experiment [21] deals with Plasmodium falciparum. As to the kind of experiment: Antimalarial activity against Plasmodium falciparum TM91C235 harboring 3 copy number of pfmdr1 gene organism selected at 80 ng/ml compound concentration. Type of experiment: functional, organism-based.
Experiment [22] has as its system Plasmodium falciparum. Briefly: Antimalarial activity against Plasmodium falciparum D6 assessed as inhibition of [3H]hypoxanthine uptake organism selected on 50 ng/ml compound concentration. Format: functional, organism-based.
Experiment [23] has as its system Plasmodium falciparum. As to the kind of experiment: Antimalarial activity against Plasmodium falciparum D6 assessed as inhibition of [3H]hypoxanthine uptake. Format: functional, organism-based.
Experiment [24] deals with Plasmodium falciparum. Briefly: Antimalarial activity against Plasmodium falciparum TM91C235 assessed as inhibition of [3H]hypoxanthine uptake. Format: functional, organism-based.
The test system of experiment [25] is Plasmodium falciparum. As to the kind of experiment: Antimalarial activity against Plasmodium falciparum W2 harboring 3 copy number of pfmdr1 gene organism selected at 50 ng/ml compound concentration. Format: functional, organism-based.
Experiment [26] deals with Plasmodium falciparum. Briefly: Antimalarial activity against Plasmodium falciparum D6 organism selected on 30 ng/ml compound concentration. Format: functional, organism-based.

SMILES strings stand for the structures. Activity calls are given as the source filed them. The calls are words filed in the database; no cut-off is given here.

In general, IC50 refers to the concentration that inhibits the measured activity by half. As usually defined, the IC90 is the concentration needed for an effect of 90%.

Take `C[C@@H]1CC[C@H]2[C@@H](C)C(=O)O[C@@H]3O[C@@]4(C)CC[C@@H]1[C@]32OO4` [ARTEMISININ]: in the experiment with Plasmodium falciparum [1], the “fold change (FC)” value is 2.2. Further, the outcome in the experiment on Plasmodium falciparum [2] and with Plasmodium falciparum [3] was inactive.
Turning to `C[C@@H]1[C@H](OCc2ccc(C(=O)O)cc2)O[C@@H]2O[C@@]3(C)CC[C@@H]4[C@@H](C)CC[C@@H]1[C@]24OO3` [ARTELINIC ACID], the outcome with Plasmodium falciparum [4], in the experiment on Plasmodium falciparum [8], in the experiment on Plasmodium falciparum [9] and with Plasmodium falciparum [21] was Active. In addition, the IC50 in the experiment on Plasmodium falciparum [5] came out at 23.3 nM; in the experiment with Plasmodium falciparum [11], 23.6 nM; in the experiment on Plasmodium falciparum [12], 33.7 nM; in the experiment on Plasmodium falciparum [13], 24.6 nM; in the experiment on Plasmodium falciparum [15], 4.37 nM; in the experiment on Plasmodium falciparum [17] it was 22.8 nM. The figures for the IC50 with Plasmodium falciparum [22] and in the experiment on Plasmodium falciparum [24] were 34 nM and 11.1 nM, respectively. Further, the IC90 in the experiment with Plasmodium falciparum [5] was 51.3 nM; in the experiment on Plasmodium falciparum [11], 75.9 nM; in the experiment with Plasmodium falciparum [12], 53.5 nM; in the experiment on Plasmodium falciparum [13], 75.9 nM; in the experiment on Plasmodium falciparum [15], 7.45 nM; in the experiment on Plasmodium falciparum [17], 56.8 nM. In addition, the values for the IC90 in the experiment with Plasmodium falciparum [22], with Plasmodium falciparum [23] and in the experiment with Plasmodium falciparum [24] were 81.3 nM, 21.8 nM and 23 nM, respectively. Moreover, the result with Plasmodium falciparum [6], in the experiment with Plasmodium falciparum [7], with Plasmodium falciparum [16], with Plasmodium falciparum [18], in the experiment with Plasmodium falciparum [19] and in the experiment on Plasmodium falciparum [20] was inactive. For the same molecule, the outcome in the experiment on Plasmodium falciparum [25] and in the experiment with Plasmodium falciparum [26] was inactive. Further, the “fold change (FC)” value is recorded as 3 with Plasmodium falciparum [10] and 2.1 with Plasmodium falciparum [14].
